# Earlier results in US20020155997A1 (priority 2000, published 2002).
# Test system: bovine plasma
# Details: reference standard
substance,measurement,value
dextran sulfate,anticoagulant activity of the standard,25 units/mg
